Patent US7875744B2, “4-((phenoxyalkyl)thio)-phenoxyacetic acids and analogs” (Janssen Pharmaceutica NV, priority 2004, dated 2011)

Assays:
Format in all cases: cell-based
Details in all cases: HEK293 cells co-transfected with PPAR LBD-GAL4 and UAS-luciferase; 18-24 hrs treatment
PPAR alpha = biological target: T1, PPAR alpha (Homo sapiens, UniProt Q07869); assay: Transfection assay for PPAR receptors (GAL4-LBD luciferase reporter in HEK293 cells), PPAR alpha
T1 construct: expressed in transfected cells; host or cells: HEK293
T1 sequence (Q07869 239-466 limits assumed): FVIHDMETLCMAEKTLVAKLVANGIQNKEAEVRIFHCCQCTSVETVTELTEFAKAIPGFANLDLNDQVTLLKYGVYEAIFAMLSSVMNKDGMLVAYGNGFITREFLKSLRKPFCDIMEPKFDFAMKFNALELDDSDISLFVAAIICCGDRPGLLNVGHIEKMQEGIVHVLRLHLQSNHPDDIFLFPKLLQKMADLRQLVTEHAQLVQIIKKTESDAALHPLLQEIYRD
Method: (§1) Transfection Assay Method for PPAR Receptors
(§2) HEK293 cells were grown in DMEM/F12 medium supplemented with 10% FBS and glutamine (Invitrogen) and incubated in a 5% CO2 incubator at 37° C. The cells were co-transfected using DMRIE-C reagent (Invitrogen) in serum free medium (Opti-MEM, Invitrogen) with two mammalian expression plasmids, one containing the DNA sequence coding for the ligand binding domains of either PPARα, γ or 6 fused to the yeast GAL4 DNA binding domain and the other containing the promoter sequence of the yeast GAL4 (UAS) fused to the firefly luciferase cDNA reporter. The next day, the medium was changed to DMEM/F12 medium supplemented with 5% charcoal treated serum (Hyclone) and glutamine. After 6 hrs the cells were trypsinized and seeded at a density of 50,000 cells/well into 96 well plates and incubated overnight as above. The cells were then treated with test compounds or vehicle and incubated for 18-24 hrs as above. Luciferase reporter activity was measured using the Steady-Glo Luciferase Assay Kit from Promega. DMRIE-C Reagent was purchased from GIBCO Cat. No. 10459-014. OPTI-MEM I Reduced Serum Medium was purchased from GIBCO (Cat. No. 31985). Steady-Glo Luciferase Assay Kit was purchased from Promega (Part# E254B).
(§3) A variety of example compounds have been made and tested, with a range of in vitro results. […]

PPAR delta = biological target: T2, PPAR delta (Homo sapiens, UniProt Q03181); assay: Transfection assay for PPAR receptors (GAL4-LBD luciferase reporter in HEK293 cells), PPAR delta
T2 construct: expressed in transfected cells; host or cells: HEK293
T2 sequence (Q03181 211-439 limits assumed): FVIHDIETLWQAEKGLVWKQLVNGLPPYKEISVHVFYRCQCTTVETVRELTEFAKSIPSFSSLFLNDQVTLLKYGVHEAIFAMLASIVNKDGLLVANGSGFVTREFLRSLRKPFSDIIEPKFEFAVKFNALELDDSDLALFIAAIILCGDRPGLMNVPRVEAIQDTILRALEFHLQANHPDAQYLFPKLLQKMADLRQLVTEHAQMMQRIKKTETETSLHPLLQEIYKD
Method: as §1, §2, §3

PPAR gamma = biological target: T3, PPAR gamma (Homo sapiens, UniProt P37231); assay: Transfection assay for PPAR receptors (GAL4-LBD luciferase reporter in HEK293 cells), PPAR gamma
T3 construct: expressed in transfected cells; host or cells: HEK293
T3 sequence (P37231 238-503 limits assumed): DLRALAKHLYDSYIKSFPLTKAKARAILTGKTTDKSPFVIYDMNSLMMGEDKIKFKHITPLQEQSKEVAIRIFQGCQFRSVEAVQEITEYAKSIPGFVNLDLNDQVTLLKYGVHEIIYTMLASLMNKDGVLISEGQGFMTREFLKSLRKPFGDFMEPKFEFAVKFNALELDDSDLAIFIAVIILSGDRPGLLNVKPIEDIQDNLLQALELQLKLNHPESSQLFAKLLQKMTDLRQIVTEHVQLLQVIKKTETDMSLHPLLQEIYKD
Method: as §1, §2, §3

EC50 (PPAR alpha): 900 nM | EC50 (PPAR delta): 41.5 nM | EC50 (PPAR gamma): 899 nM
Compound: C=C(COc1ccc(OC(F)(F)F)cc1)CSc1ccc(OC(C)(C)C(=O)O)c(C)c1 [Compound 2]
